Article PMC8162438, “Cancer cell-selective modulation of mitochondrial respiration and metabolism by potent organogold(III) dithiocarbamates” (Chemical Science, 2020)

Tested on: MDA-MB-231
Experiment: Cell cycle analysis by flow cytometry (PI)
Assay type: cell-based
Details: MDA-MB-231, 0.1 μM
Experimental: The effect of 2a on cell cycle was studied by flow cytometry. We observed a time-dependent increase in G0/G1 cell cycle population over 24–72 h period. […] There are several small molecule drug candidates in clinical trials as inhibitors of CDK4/6 and induce G1 cell cycle arrest.[107–110] Thus, our finding is relevant for the design of gold based therapies for refractory tumors such as TNBC.[107–110] After 24 h, a 10% increase can be seen for G1 cell population as well as a 6% decrease in S phase in comparison to the control (Fig. 12B and C). […] The mitochondria control cellular ATP production, it is therefore possible that inhibition of mitochondria respiration and consequently low ATP levels lead to cell cycle arrest.[112–114] […]
with a final volume of 100 µL and incubated overnight at 37 °C. Compound 2a was prepared as a stock in DMSO and diluted to a working concentration of 200 µM with Seahorse XF96 assay buffer and then subsequently serial diluted by 3x to achieve multiple concentrations. The assay was performed using a pneumatic injection method of 2a, with the final injection concentrations of 0.1, 1, 3 , and 11 µM. This was followed by injection of oligomycin (1.5 µM), FCCP (0.6 µM) and rotenone/ antimycin A (0.5 µ M). […]
supplementary information of the following papers. 15-16
The Seahorse XF96 analysis for MRC5 was performed in an identical manner to MDA-MB-231 except that MRC5 cells were seeded at a density of 50,000 cells/well and an FCCP injection concentration of 0.6 µ M was used.
Cell Cycle Analysis. MDA-MB-231 cells were seeded at a density of 2 x 10^5 cells/well in a 6 well clear bottom plate with a final media volume of 2 mL and allowed to adhere overnight 37 °C. Compound 2a was prepared fresh as a stock in DMSO and added at a final concentration of 0.1 µM with a final volume of 2.5 mL. […] These solutions were stored at 4 °C until ready for analysis. […] The samples were then analyzed with FACS. […]

## C[N+](C)=C1[S][Au-2]2([S]1)[c]1ccccc1Cc1cccc[n+]12.F[P-](F)(F)(F)(F)F (stereo not drawn) [2a]
24 h
  Decrease in S phase versus control: 6%
  Increase in G1 cell population versus control: 10%
72 h
  G1 phase change over 72 h: significant increase in G1 phase
